Cc1cc(Cl)ccc1OCC(=O)O gave a solubility (mole fraction) (in acetone, 278.15 K) of 0.158, a solubility (mole fraction) (in acetone, 283.15 K) of 0.171 and a solubility (mole fraction) (in acetone, 288.15 K) of 0.188. The solubility (mole fraction) (in acetone, 293.15 K) was 0.201, the solubility (mole fraction) (in acetone, 298.15 K) was 0.22 and the solubility (mole fraction) (in acetone, 303.15 K) was 0.239. For the same compound, the solubility (mole fraction) (in acetone, 308.15 K) was 0.258, the solubility (mole fraction) (in acetone, 313.15 K) was 0.281 and the solubility (mole fraction) (in acetone, 318.15 K) was 0.301. For the same compound, the solubility (mole fraction) (in acetone, 323.15 K) was 0.32, the solubility (mole fraction) (in acetonitrile, 278.15 K) was 0.0254 and the solubility (mole fraction) (in acetonitrile, 283.15 K) was 0.0342. The solubility (mole fraction) (in acetonitrile, 288.15 K) was 0.0458, the solubility (mole fraction) (in acetonitrile, 293.15 K) was 0.0607 and the solubility (mole fraction) (in acetonitrile, 298.15 K) was 0.0789. For the same compound, the solubility (mole fraction) (in acetonitrile, 303.15 K) was 0.0968, the solubility (mole fraction) (in acetonitrile, 308.15 K) was 0.128 and the solubility (mole fraction) (in acetonitrile, 313.15 K) was 0.159. It also gave a solubility (mole fraction) (in acetonitrile, 318.15 K) of 0.196, a solubility (mole fraction) (in acetonitrile, 323.15 K) of 0.248 and a solubility (mole fraction) (in ethanol, 278.15 K) of 0.125. The solubility (mole fraction) (in ethanol, 283.15 K) was 0.151, the solubility (mole fraction) (in ethanol, 288.15 K) was 0.184 and the solubility (mole fraction) (in ethanol, 293.15 K) was 0.235. The solubility (mole fraction) (in ethanol, 298.15 K) was 0.3, the solubility (mole fraction) (in ethanol, 303.15 K) was 0.352 and the solubility (mole fraction) (in ethanol, 308.15 K) was 0.424. It also gave a solubility (mole fraction) (in ethanol, 313.15 K) of 0.497, a solubility (mole fraction) (in ethanol, 318.15 K) of 0.561 and a solubility (mole fraction) (in ethanol, 323.15 K) of 0.661. It also gave a solubility (mole fraction) (in ethyl acetate, 278.15 K) of 0.101, a solubility (mole fraction) (in ethyl acetate, 283.15 K) of 0.104 and a solubility (mole fraction) (in ethyl acetate, 288.15 K) of 0.116. For the same compound, the solubility (mole fraction) (in ethyl acetate, 293.15 K) was 0.127, the solubility (mole fraction) (in ethyl acetate, 298.15 K) was 0.146 and the solubility (mole fraction) (in ethyl acetate, 303.15 K) was 0.17. It also gave a solubility (mole fraction) (in ethyl acetate, 308.15 K) of 0.192, a solubility (mole fraction) (in ethyl acetate, 313.15 K) of 0.221 and a solubility (mole fraction) (in ethyl acetate, 318.15 K) of 0.25. For the same compound, the solubility (mole fraction) (in ethyl acetate, 323.15 K) was 0.299, the solubility (mole fraction) (in ethyl formate, 278.15 K) was 0.0572 and the solubility (mole fraction) (in ethyl formate, 283.15 K) was 0.0618. It also gave a solubility (mole fraction) (in ethyl formate, 288.15 K) of 0.0699, a solubility (mole fraction) (in ethyl formate, 293.15 K) of 0.0798 and a solubility (mole fraction) (in ethyl formate, 298.15 K) of 0.0914. For the same compound, the solubility (mole fraction) (in ethyl formate, 303.15 K) was 0.107, the solubility (mole fraction) (in ethyl formate, 308.15 K) was 0.123 and the solubility (mole fraction) (in ethyl formate, 313.15 K) was 0.14. For the same compound, the solubility (mole fraction) (in ethyl formate, 318.15 K) was 0.164, the solubility (mole fraction) (in ethyl formate, 323.15 K) was 0.204 and the solubility (mole fraction) (in isobutanol, 278.15 K) was 0.0895. It also gave a solubility (mole fraction) (in isobutanol, 283.15 K) of 0.111, a solubility (mole fraction) (in isobutanol, 288.15 K) of 0.139 and a solubility (mole fraction) (in isobutanol, 293.15 K) of 0.17. For the same compound, the solubility (mole fraction) (in isobutanol, 298.15 K) was 0.214, the solubility (mole fraction) (in isobutanol, 303.15 K) was 0.265 and the solubility (mole fraction) (in isobutanol, 308.15 K) was 0.332. It also gave a solubility (mole fraction) (in isobutanol, 313.15 K) of 0.39, a solubility (mole fraction) (in isobutanol, 318.15 K) of 0.454 and a solubility (mole fraction) (in isobutanol, 323.15 K) of 0.558. For the same compound, the solubility (mole fraction) (in isopropanol, 278.15 K) was 0.123, the solubility (mole fraction) (in isopropanol, 283.15 K) was 0.134 and the solubility (mole fraction) (in isopropanol, 288.15 K) was 0.154. The solubility (mole fraction) (in isopropanol, 293.15 K) was 0.175, the solubility (mole fraction) (in isopropanol, 298.15 K) was 0.2 and the solubility (mole fraction) (in isopropanol, 303.15 K) was 0.237. It also gave a solubility (mole fraction) (in isopropanol, 308.15 K) of 0.27, a solubility (mole fraction) (in isopropanol, 313.15 K) of 0.314 and a solubility (mole fraction) (in isopropanol, 318.15 K) of 0.364. The solubility (mole fraction) (in isopropanol, 323.15 K) was 0.428, the solubility (mole fraction) (in methyl acetate, 278.15 K) was 0.0958 and the solubility (mole fraction) (in methyl acetate, 283.15 K) was 0.106. The solubility (mole fraction) (in methyl acetate, 288.15 K) was 0.12, the solubility (mole fraction) (in methyl acetate, 293.15 K) was 0.134 and the solubility (mole fraction) (in methyl acetate, 298.15 K) was 0.149. For the same compound, the solubility (mole fraction) (in methyl acetate, 303.15 K) was 0.17, the solubility (mole fraction) (in methyl acetate, 308.15 K) was 0.2 and the solubility (mole fraction) (in methyl acetate, 313.15 K) was 0.234. For the same compound, the solubility (mole fraction) (in methyl acetate, 318.15 K) was 0.271, the solubility (mole fraction) (in methyl acetate, 323.15 K) was 0.318 and the solubility (mole fraction) (in n-butyl acetate, 278.15 K) was 0.0915. The solubility (mole fraction) (in n-butyl acetate, 283.15 K) was 0.0974, the solubility (mole fraction) (in n-butyl acetate, 288.15 K) was 0.106 and the solubility (mole fraction) (in n-butyl acetate, 293.15 K) was 0.122. The solubility (mole fraction) (in n-butyl acetate, 298.15 K) was 0.139, the solubility (mole fraction) (in n-butyl acetate, 303.15 K) was 0.162 and the solubility (mole fraction) (in n-butyl acetate, 308.15 K) was 0.185. For the same compound, the solubility (mole fraction) (in n-butyl acetate, 313.15 K) was 0.209, the solubility (mole fraction) (in n-butyl acetate, 318.15 K) was 0.247 and the solubility (mole fraction) (in n-butyl acetate, 323.15 K) was 0.296. For the same compound, the solubility (mole fraction) (in n-propanol, 278.15 K) was 0.127, the solubility (mole fraction) (in n-propanol, 283.15 K) was 0.138 and the solubility (mole fraction) (in n-propanol, 288.15 K) was 0.159. For the same compound, the solubility (mole fraction) (in n-propanol, 293.15 K) was 0.197, the solubility (mole fraction) (in n-propanol, 298.15 K) was 0.238 and the solubility (mole fraction) (in n-propanol, 303.15 K) was 0.279. The solubility (mole fraction) (in n-propanol, 308.15 K) was 0.342, the solubility (mole fraction) (in n-propanol, 313.15 K) was 0.405 and the solubility (mole fraction) (in n-propanol, 318.15 K) was 0.46. The solubility (mole fraction) (in n-propanol, 323.15 K) was 0.54, the solubility (mole fraction) (in n-propyl acetate, 278.15 K) was 0.0958 and the solubility (mole fraction) (in n-propyl acetate, 283.15 K) was 0.103. For the same compound, the solubility (mole fraction) (in n-propyl acetate, 288.15 K) was 0.112, the solubility (mole fraction) (in n-propyl acetate, 293.15 K) was 0.127 and the solubility (mole fraction) (in n-propyl acetate, 298.15 K) was 0.144. For the same compound, the solubility (mole fraction) (in n-propyl acetate, 303.15 K) was 0.161, the solubility (mole fraction) (in n-propyl acetate, 308.15 K) was 0.182 and the solubility (mole fraction) (in n-propyl acetate, 313.15 K) was 0.211. The solubility (mole fraction) (in n-propyl acetate, 318.15 K) was 0.243, the solubility (mole fraction) (in n-propyl acetate, 323.15 K) was 0.297 and the solubility (mole fraction) (in toluene, 278.15 K) was 0.00841. It also gave a solubility (mole fraction) (in toluene, 283.15 K) of 0.00904, a solubility (mole fraction) (in toluene, 288.15 K) of 0.011 and a solubility (mole fraction) (in toluene, 293.15 K) of 0.0136. The solubility (mole fraction) (in toluene, 298.15 K) was 0.0172, the solubility (mole fraction) (in toluene, 303.15 K) was 0.0214 and the solubility (mole fraction) (in toluene, 308.15 K) was 0.0274. It also gave a solubility (mole fraction) (in toluene, 313.15 K) of 0.0331, a solubility (mole fraction) (in toluene, 318.15 K) of 0.0419 and a solubility (mole fraction) (in toluene, 323.15 K) of 0.0515.

Source: BigSolDB 2.1
